Tests used:
EP4 receptor [1] = target: T1, EP4 receptor (Homo sapiens, UniProt P35408); assay: cAMP accumulation assay in cells expressing EP4 (Biological Example 1, diol derivative); assay type: cell-based; conditions: for RLU - background: cAMP luminescence, mean of triplicate
Procedure: (§1) Commercial cAMP accumulation assays are typically competitive immunoassays in which free cAMP from cell lysates competes for antibody binding against a “labeled” cAMP molecule. This positive signal is generated in direct proportion to the amount of free cAMP. In our assays cAMP standards and samples are pipetted into the wells of a microplate. An antibody specific cAMP is added to the wells. A substrate is added to the wells and luminescence develops in proportion to the amount of cAMP which accumulated during treatment of cells which express the EP4 receptor with standards and samples. The intensity of the luminescence is measured in a luminometer.
The response of the EP4 expressing cells treated with the diol derivative is compared to Nileprost. Results shown are the mean of triplicate determinations.

EP4 receptor [2] = target: T1, EP4 receptor; assay: cAMP accumulation assay in cells expressing EP4 (Biological Example 2, tetrazole derivatives); assay type: cell-based; conditions: cAMP luminescence, mean of triplicate
Procedure: as §1
Results shown are the mean of triplicate determinations.

T1 sequence (P35408 whole entry): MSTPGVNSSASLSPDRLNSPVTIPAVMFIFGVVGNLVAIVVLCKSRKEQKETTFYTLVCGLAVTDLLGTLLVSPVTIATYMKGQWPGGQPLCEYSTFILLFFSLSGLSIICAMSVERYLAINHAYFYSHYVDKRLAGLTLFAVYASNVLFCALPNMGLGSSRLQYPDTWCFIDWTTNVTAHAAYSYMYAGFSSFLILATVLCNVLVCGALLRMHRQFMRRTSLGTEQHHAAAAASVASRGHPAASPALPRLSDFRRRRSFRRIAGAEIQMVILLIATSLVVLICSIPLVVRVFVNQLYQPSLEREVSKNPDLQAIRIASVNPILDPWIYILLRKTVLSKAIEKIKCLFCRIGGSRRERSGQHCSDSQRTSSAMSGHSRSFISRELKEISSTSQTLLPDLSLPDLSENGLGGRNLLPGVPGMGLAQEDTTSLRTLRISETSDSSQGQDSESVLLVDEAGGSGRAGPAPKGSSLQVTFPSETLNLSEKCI

Compound | RLU - background (EP4 receptor [1]; compound 0.010 nM) [RLU] | RLU - background (EP4 receptor [1]; compound 0.152 nM) [RLU] | RLU - background (EP4 receptor [1]; compound 0.457 nM) [RLU] | RLU - background (EP4 receptor [1]; compound 1.372 nM) [RLU] | RLU - background (EP4 receptor [1]; compound 4.115 nM) [RLU] | RLU - background (EP4 receptor [1]; compound 12.346 nM) [RLU] | RLU - background (EP4 receptor [1]; compound 37.037 nM) [RLU] | RLU - background (EP4 receptor [1]; compound 111.111 nM) [RLU] | RLU - background (EP4 receptor [2]; compound 0.005 nM) [RLU] | RLU - background (EP4 receptor [2]; compound 0.052 nM) [RLU] | RLU - background (EP4 receptor [2]; compound 0.157 nM) [RLU] | RLU - background (EP4 receptor [2]; compound 0.472 nM) [RLU] | RLU - background (EP4 receptor [2]; compound 1.417 nM) [RLU] | RLU - background (EP4 receptor [2]; compound 4.252 nM) [RLU] | RLU - background (EP4 receptor [2]; compound 12.757 nM) [RLU] | RLU - background (EP4 receptor [2]; compound 38.272 nM) [RLU] | RLU - background (EP4 receptor [2]; compound 114.815 nM) [RLU] | RLU - background (EP4 receptor [2]; compound 344.444 nM) [RLU] | RLU - background (EP4 receptor [2]; compound 1033.333 nM) [RLU] | RLU - background (EP4 receptor [2]; compound 3100.000 nM) [RLU] | also measured
CCCCC(C)C(O)C=CC1C(O)CC2OC(=C(C#N)CCCC(=O)O)CC21 (stereo not shown) [Nileprost, 5-cyano-16-methylprostacyclin, reference compound] | 0 | 850786 | 1291900 | 1521826 | 1626762 | 1589698 | 1312998 | 1258626 |  |  |  |  |  |  |  |  |  |  |  |  | RLU - background (EP4 receptor [1]; compound 333.333 nM): 1648306 RLU; RLU - background (EP4 receptor [1]; compound 1000.000 nM): 1635488 RLU; RLU - background (EP4 receptor [1]; compound 3000.000 nM): 1625442 RLU; RLU - background (EP4 receptor [1]; compound 9000.000 nM): 1599712 RLU
CCCCC[C@H](O)/C=C/[C@@H]1[C@H]2CC(=C(C#N)CCCc3nnn[nH]3)O[C@H]2C[C@H]1O [Cpd. #4, α-[(3aR,4R,5R,6aS)-hexahydro-5-hydroxy-4-[(1E,3S)-3-hydroxy-1-octenyl]-2H-cyclopenta[b]furan-2-ylidene]-1H-tetrazole-5-pentanenitrile] |  |  |  |  |  |  |  |  | 146597.33 | 83650.67 | 40557.33 | 46426.67 | 82445.33 | 158224.00 | 429672.00 | 554328.00 | 813194.67 | 909808.00 | 808477.33 | 820866.67 | 
CCCCC(C)[C@H](O)/C=C/[C@@H]1[C@H]2C/C(=C(\C#N)CCCc3nnn[nH]3)O[C@H]2C[C@H]1O (stereo partly drawn) [Cpd. #1, α-[(3aR,4R,5R,6aS)-hexahydro-5-hydroxy-4-[(1E,3S)-3-hydroxy-4-methyl-1-octenyl]-2H-cyclopenta[b]furan-2-ylidene]-1H-tetrazole-5-2E-pentanenitrile] |  |  |  |  |  |  |  |  | 53600.00 | 17642.67 | 22533.33 | 27365.33 | 157357.33 | 373856.00 | 435810.67 | 484954.67 | 514858.67 | 606992.00 | 584826.67 | 559813.33 | 
CCCCC(C)[C@H](O)/C=C/[C@@H]1[C@H]2C/C(=C(\C#N)CCCC(O)CO)O[C@H]2C[C@H]1O (stereo partly drawn) [Cpd. #5, 2-[(3aR,4R,5R,6aS)-hexahydro-5-hydroxy-4-[(1E,3S)-3-hydroxy-4-methyl-1-octenyl]-2H-cyclopenta[b]furan-2-ylidene]-6,7-dihydroxy-, (2E)-heptanenitrile] | 0 | 0 | 0 | 152432 | 532234 | 912060 | 1019082 | 1150386 |  |  |  |  |  |  |  |  |  |  |  |  | RLU - background (EP4 receptor [1]; compound 333.333 nM): 1291820 RLU; RLU - background (EP4 receptor [1]; compound 1000.000 nM): 1260692 RLU; RLU - background (EP4 receptor [1]; compound 3000.000 nM): 1201852 RLU; RLU - background (EP4 receptor [1]; compound 9000.000 nM): 1206470 RLU; EP4 agonist activity in the cAMP accumulation assay (EP4 receptor [1]; result in words): dose-responsively showed EP4 agonist activity
CCCCC(C)[C@@H](O)/C=C/[C@@H]1[C@H]2C/C(=C(/C#N)CCCc3nnn[nH]3)O[C@H]2C[C@H]1O (stereo partly drawn) [Cpd. #3, α-[(3a R,4R,5R,6aS)-hexahydro-5-hydroxy-4-[(1E,3R)-3-hydroxy-4-methyl-1-octenyl]-2H-cyclopenta[b]furan-2-ylidene]-1H-tetrazole-5-2Z-pentanenitrile] |  |  |  |  |  |  |  |  | 76373.33 | 79997.33 | 83616.00 | 118397.33 | 273778.67 | 374920.00 | 522154.67 | 697208.00 | 773429.33 | 813525.33 | 710053.33 | 714320.00 | 

— patent US20080242713A1, “Novel 5-cyano-prostacyclin derivatives as agents for the treatment of autoimmune diseases” (priority 2007, published 2008)
